What all share (test): DTP human tumour cell line panel, 48 h
Assay [1] relates to NCI-H226 lung.
The subject of assay [2] is SF-539 CNS.
Assay [3] relates to T-47D breast.
The test system of assay [4] is A498 renal.
Assay [5] has as its system RPMI-8226 leukemia.
Assay [6] concerns K-562 leukemia.
Assay [7] concerns A549 NSCLC.
The subject of assay [8] is OVCAR-5 ovarian.
In assay [9] the test system is UACC-257 melanoma.
Assay [10] relates to HCT-116 colon.

The values below come from PubChem BioAssay (NCI).

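In this assay, cells in 96-well plates receive the compound at five concentrations for 48 hours. Endpoints are linearly interpolated between the surrounding concentrations. The concentration for 50% growth inhibition is given as GI50. TGI denotes the concentration required for complete inhibition of growth.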 Some results are limits rather than exact numbers.

By GI50 is commonly meant the concentration giving 50% growth inhibition. A word on the TGI: it is the concentration giving total growth inhibition. A higher TGI goes with lower sensitivity of the cells.

Turning to `CCS/C(Nc1ccccc1)=C(\C#N)C(=O)Nc1ccc(OC)cc1`, the GI50 in assay [1] was 5.45 µM; in [2] it was 1.96 µM; in assay [3], 4.08 µM; in assay [4], 2.54 µM; in [5] it was 2.52 µM; in [6] it was 0.436 µM. Also, the GI50 is 5.91 µM in assay [7], 5.52 µM in assay [8], 21.2 µM in assay [9] and 1.95 µM in assay [10]. For the same compound, the TGI in [1] is 50.7 µM; in assay [2], 4.81 µM; in assay [3] it was over 100 µM; in assay [4] it was 26.6 µM; in [5], over 100 µM; in assay [6], over 100 µM. In addition, the TGI in assay [7] is over 100 µM; in assay [8], over 100 µM; in assay [9] it was over 100 µM; in assay [10], 16.4 µM.

Take `CC(=O)N1CC(F)(F)c2c(Sc3ncc(N4CCC5(CC4)COC[C@H]5N)nc3N)cccc21`: the GI50 in [1] is 20.9 µM; in assay [2] it was 11.2 µM; in [3] it was 17.6 µM; in assay [4] it was 0.402 µM; in assay [5], 12.4 µM; in assay [6], 2.11 µM. In addition, the GI50 is 23.1 µM in assay [7], 15.4 µM in assay [8], 22.8 µM in assay [9] and 17.7 µM in assay [10]. The TGI is over 100 µM in assay [1]; 23.3 µM in [2]; over 100 µM in assay [3]; 4.18 µM in assay [4]; 42.7 µM in [5]; 20.7 µM in [6]. Further, the TGI in assay [7] was over 100 µM; in assay [8], over 100 µM; in assay [9], 62 µM; in [10], 46.6 µM.

Consider `O=C(/C=C\c1ccnc2ccccc12)c1ccc([N+](=O)[O-])cc1`, for which the GI50 in assay [1] is 6.35 µM; in assay [2] it was 6.82 µM; in assay [3], 4.19 µM; in [4], 1.68 µM; in assay [5], 1.87 µM; in assay [6], 2.47 µM. For the same compound, the GI50 in [7] is over 41.1 µM; in assay [8], over 60.6 µM; in [9], 8.8 µM; in assay [10], 1.59 µM. For the same compound, the TGI in assay [1] is over 100 µM; in assay [2], 24.9 µM; in assay [3], over 66.4 µM; in assay [4], over 100 µM; in assay [5], 4.6 µM; in assay [6], 18 µM. Also, the TGI in assay [7] was over 100 µM; in assay [8], over 100 µM; in assay [9] it was over 60.7 µM; in assay [10] it was 3.15 µM.

With `O=C(/C=C/c1ccco1)Nc1ncc(Cc2ccc(F)cc2)s1`, the TGI in [1] is over 100 µM; in assay [2], 0.379 µM; in assay [3] it was over 100 µM; in [4], 0.0975 µM; in assay [5], over 100 µM; in [6], over 100 µM. Also, the TGI in [7], in assay [8], in [9] and in [10] was over 100 µM throughout. The GI50 was 0.0686 µM in assay [2]; 0.03 µM in [3]; 0.027 µM in assay [4]; 0.0721 µM in assay [5]; 0.0385 µM in assay [6]; 0.118 µM in assay [7]. Further, the 50% growth inhibitory concentration (GI50) was 0.244 µM in assay [8] and 0.0408 µM in assay [10].

As for `CC[C@H](C)[C@H](NC(=O)C12C3C4C1C1C2C3C41NC(C)=O)C(=O)N(C)[C@H](C[C@@H](OC(C)=O)c1nc(C(=O)N[C@@H](Cc2ccccc2)C[C@H](C)C(=O)OC)cs1)C(C)C` (some centres not stated), the GI50 in assay [1] is over 9.71 µM; in assay [2] it was 0.349 µM; in assay [3], over 14.3 µM; in assay [4], 0.503 µM; in assay [5], 0.0735 µM; in [6], 0.118 µM. For the same compound, the GI50 is 2.82 µM in assay [7], 3.97 µM in [8], 0.563 µM in [9] and 0.354 µM in assay [10]. The TGI in [1] is over 14.3 µM; in [2], 1.01 µM; in assay [3], over 14.3 µM; in assay [4], 10.2 µM; in assay [5] it was over 6.78 µM; in assay [6], over 14.3 µM. For the same compound, the TGI in assay [7], in assay [8], in assay [9] and in assay [10] was over 14.3 µM each time.

Turning to `C[C@H]1[C@@H](OCC(CO[C@H]2O[C@@H]3O[C@@]4(C)CC[C@H]5[C@H](C)CC[C@@H]([C@H]2C)[C@@]35OO4)=NOCC(=O)O)OC2O[C@@]3(C)CC[C@H]4[C@H](C)CC[C@@H]1[C@@]24OO3` (some centres not stated), the GI50 in assay [1] is 0.0375 µM; in assay [2], 0.442 µM; in assay [3] it was under 0.01 µM; in [4], 1.76 µM; in [5] it was under 0.01 µM; in assay [6] it was under 0.01 µM. Moreover, the GI50 is 0.0865 µM in [7], 0.497 µM in assay [8], 0.0266 µM in assay [9] and under 0.01 µM in assay [10]. The TGI in [1] stood at 20.1 µM; in [2], 20.9 µM; in assay [3], 0.331 µM; in [4], 19.6 µM; in assay [6] it was 17.5 µM; in [7], 15.9 µM. Further, the TGI stood at 30.3 µM in [8], 16.4 µM in [9] and 13.7 µM in assay [10].

On to `O=Cc1coc2ccccc2c1=O`, for which the TGI was 84.4 µM in [1]; 31.9 µM in [2]; over 100 µM in assay [3]; over 100 µM in [4]; 52.1 µM in assay [5]; 55.5 µM in assay [6]. Besides, the TGI in assay [7] was 84.9 µM; in [8] it was 56.2 µM; in assay [9] it was 46.7 µM; in assay [10], 32 µM.

Turning to `CCSC1=CC(=O)c2ccccc2C1=O`, the GI50 was 16.8 µM in [1]; 12.7 µM in [2]; 0.318 µM in [3]; 16.4 µM in [4]; 1.49 µM in assay [5]; 1.61 µM in assay [6]. The GI50 was 19.9 µM in assay [7], 16.9 µM in assay [8], 1.6 µM in assay [9] and 1.48 µM in assay [10]. Besides, the TGI in [1] came out at 32.9 µM; in assay [2], 28.2 µM; in assay [3], 0.959 µM; in assay [4], 41.2 µM; in assay [5], 5.65 µM; in assay [6], 4.52 µM. Moreover, the TGI in [7] came out at 41.3 µM; in assay [8], 32.5 µM; in assay [9] it was 3.89 µM; in [10], 2.84 µM.
